Laboratory results as given in PMC10294662, “Small Molecule Attenuates Bacterial Virulence by Targeting Conserved Response Regulator” (mBio, 2023).

Biological target: VicR (Streptococcus mutans, UniProt I6L8Z5)
Test: bio-layer interferometry, biotinylated 2B5 on streptavidin sensors; pulldown of recombinant VicR and VicR-N
Assay type: binding
Set-up: gene covR; recombinant VicR; VicR-N (1 to 125 amino acid residues) also captured, VicR-C (126 to 235) not captured

Chain of VicR (I6L8Z5 entry or part of it): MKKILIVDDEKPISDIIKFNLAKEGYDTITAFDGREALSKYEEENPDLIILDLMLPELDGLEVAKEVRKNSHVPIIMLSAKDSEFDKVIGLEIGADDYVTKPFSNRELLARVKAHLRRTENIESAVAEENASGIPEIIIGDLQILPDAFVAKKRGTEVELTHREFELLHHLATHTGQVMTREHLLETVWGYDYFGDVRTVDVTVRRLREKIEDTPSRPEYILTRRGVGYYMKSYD

SMILES: CCCCCCCCCCCCCCCCN(CCCCCCc1cn(CCNC(=O)CCCC[C@@H]2SC[C@@H]3NC(=O)N[C@@H]32)nn1)C(=O)CCCc1c[nH]c(N)n1 [Bio2B5, biotinylated 2B5]
- Kd: 38 ± 6.3 µM
